{"source": "patent US10939692B2", "about": "“Method for culturing aquatic animals with aspartyl-dipeptides” (Cysal GmbH, priority 2015, dated 2021)", "assay_type_in_all_cases": "in vivo", "key": {"Marsupenaeus japonicus": {"test_system": "Marsupenaeus japonicus", "test": "Aquaculture screening experiment, kuruma shrimp growth on arginine-limited basal diet", "conditions": "after two months", "text": "Nearly all of the […] species relevant to aquaculture belong to three supra-orders: Ostariophysi ([…], catfish, and allies), Protacanthopterygii (e.g. pike, trouts and salmon), and Acanthopterygii (around 50% of all fish species, including all […], flatfish, tuna, etc.). In order to cover as much of the phylogenetic range as possible, fish species were chosen from each of these supra-orders (Ostariophysi; Clarias gariepinus, Protacanthopterygii; Oncorhychus mykiss, Acanthopterygii; Oreochromis niloticus). Additionally, kuruma shrimp (Marsupenaeus japonicus) was chosen as a representative species of crustacean due to its significance in the high-end market. At the end of the experiment, the individual weights were recorded and the data analyzed statistically. All experiments started with young fry or postlarvae. […] Water quality (oxygen levels, nitrite, and nitrate) was monitored weekly. […] Basal diet composition for Tilapia and Kuruma shrimp contained a calculated arginine content of about 1.35% (of diet) which is lower than the minimum requirements of both Tilapia and Kuruma shrimp: corn 40%, soybean meal 21%, rice polishings 14%, gluten 11%, wheat bran 5%, herring meal 5%, monocalcium phosphate 0.8%, limestone 0.7%, L-lysine HCl 0.7%, fish oil 0.5%, vitamin mineral premix 0.3%, sodium bicarbonate 0.15%, salt 0.15%, pellet binder 0.05%. […]"}, "Clarias gariepinus": {"test_system": "Clarias gariepinus", "test": "Aquaculture screening experiment, African catfish growth on arginine-limited basal diet", "conditions": "after four months", "text": "(§1) Nearly all of the […] species relevant to aquaculture belong to three supra-orders: Ostariophysi ([…], catfish, and allies), Protacanthopterygii (e.g. pike, trouts and salmon), and Acanthopterygii (around 50% of all fish species, including all […], flatfish, tuna, etc.). In order to cover as much of the phylogenetic range as possible, fish species were chosen from each of these supra-orders (Ostariophysi; Clarias gariepinus, Protacanthopterygii; Oncorhychus mykiss, Acanthopterygii; Oreochromis niloticus). Additionally, kuruma shrimp (Marsupenaeus japonicus) was chosen as a representative species of crustacean due to its significance in the high-end market. At the end of the experiment, the individual weights were recorded and the data analyzed statistically. All experiments started with young fry or postlarvae. All species except trout were housed during the experiments in parallel recirculation systems of fresh water. Marsupenaeus japonicus shrimp were maintained in seawater. Oreochromis niloticus and Clarias gariepinus were housed in 200-L tanks filtered by a commercial pond filter. Trout were housed in a smaller system composed of 70-l tanks connected in series to account for the species' higher oxygen demand and preference for stronger current. Water quality (oxygen levels, nitrite, and nitrate) was monitored weekly. Partial water replacements were performed if the desired levels were exceeded. (<3 mg O2/l, detectable nitrite, >25 mg/l nitrate). In order to examine the efficiency of dipeptide products after as feed supplements for aquaculture, β-L-aspartyl-arginine as obtained in Example 1 was used in combination with basal arginine-limited diets. The latter diets were supplemented with the said dipeptide products to a concentration of 1.25 or 2.5% (wt/wt), or with corresponding isonitrogenous concentrations of an aspartic acid-arginine mixture (to determine the effect of free amino acids alone). Basal diets were formulated from individual components in common use in the aquaculture feed industry to ensure realistic conditions. […]"}, "[1]": {"test_system": "Atlantic salmon (Salmo salar L.)", "test": "Salmon nutrition experiment (bioavailability, arginine retention, growth, safety)", "text": "The objective of the experiment was to examine the in vivo bioavailability of the above described “β-L-aspartyl-R” dipeptides in fish for the first time and consequently to determine their applicability as a substitute of free amino acids sources in Atlantic salmon (Salmo salar L.) nutrition. Therefore, varying supplementation levels of β-L-aspartyl-L-arginine in contrast to a mixture of free amino acids L-arginine and L-aspartic acid were compared.\n315 Atlantic salmon (96.33 g±11.47 g; Danish Salmon AS, Hirtshals, DK) were acclimatized for 14 d in the experimental rearing system. The tanks of the system were part of a recirculation system (3.5 m^3 water volume, turnover rate 2 h^−1). The water purification system consisted of a mechanical filter, a moving bed filter, and a protein skimmer. Water quality parameters were maintained within a safe range for the fish (7.2-7.6 pH; GMH 3530, Digital pH-/mV-/Thermometer, Greisinger electronic, D; 22.5±0.3° C., 8.5±0.4 mg/l O2; Handy Polaris; Oxy-Guard International A/S, Birkerod, Denmark; <0.4 mg/l NH4—N; <0.24 mg/l NO2—N; Microquant test kit for NH4 and NO2; Merck KgaA, Darmstadt, Germany). The light conditions were set to 14 h/10 h light/dark cycle. During acclimatization fish were fed a commercial salmon feed (Aller Gold 4 mm; AllerAqua A/S, Christiansfeld, Denmark). The fish were reared in 150 l aquaria. Triplicate fish groups (3×15) were fed to apparent satiation twice a day over a period of 10 weeks.\nIn order to fulfill the nutritional demands of Atlantic salmon (except for arginine content), the different concentrations of the test substances were added to a basal diet which was produced with the following common ingredients used for fish nutrition: Fish meal (Clupea sp.) 9.91%, Blood meal 1.93%, Casein 3.05%, Corn gluten 20.80%, Wheat gluten 22.09%, Biolysine™ 1.48%, Wheat starch 25.43%, Fish oil 11.13%, Ca2PO4 0.46%, Vit/min premix 0.93%, TiO2 0.93%, and Carboxymethyl cellulose ad 100% (after adding the test supplements). The experiment was carried out with the resulting 7 dietary treatments:\nSamples of all experimental groups were analyzed for arginine retention in the lab of LUFA in Kiel. […] Crude protein content (N×6.25) was determined by the Kjeldahl method, crude lipid content after hydrolysis with hydrochloric acid followed by a petroleum ether extraction using a Soxhlet extraction system, DM after drying at 103° C. until constant weight, and ash content after 4 h incineration at 550° C. in a combustion oven (P300; Nabertherm, Lilienthal, Germany). Furthermore, gross energy was measured in a bomb calorimeter (C 200; IKA, Staufen, Germany).\nThe statistical analyses were performed using SPSS 21.0 for Windows (SPSS Inc., Chicago, U.S.). […] Data were analyzed for variance homogeneity by Levene (p<0.05). […]"}, "Oncorhynchus mykiss": {"test_system": "Oncorhynchus mykiss", "test": "Aquaculture screening experiment, trout growth on arginine-limited basal diet", "conditions": "after four months", "text": "as §1"}, "Oreochromis niloticus": {"test_system": "Oreochromis niloticus", "test": "Aquaculture screening experiment, Tilapia growth on arginine-limited basal diet", "conditions": "after two months", "text": "Nearly all of the […] species relevant to aquaculture belong to three supra-orders: Ostariophysi ([…], catfish, and allies), Protacanthopterygii (e.g. pike, trouts and salmon), and Acanthopterygii (around 50% of all fish species, including all […], flatfish, tuna, etc.). In order to cover as much of the phylogenetic range as possible, fish species were chosen from each of these supra-orders (Ostariophysi; Clarias gariepinus, Protacanthopterygii; Oncorhychus mykiss, Acanthopterygii; Oreochromis niloticus). Additionally, kuruma shrimp (Marsupenaeus japonicus) was chosen as a representative species of crustacean due to its significance in the high-end market. At the end of the experiment, the individual weights were recorded and the data analyzed statistically. All experiments started with young fry or postlarvae. All species except trout were housed during the experiments in parallel recirculation systems of fresh water. Marsupenaeus japonicus shrimp were maintained in seawater. Oreochromis niloticus and Clarias gariepinus were housed in 200-L tanks filtered by a commercial pond filter. Trout were housed in a smaller system composed of 70-l tanks connected in series to account for the species' higher oxygen demand and preference for stronger current. Water quality (oxygen levels, nitrite, and nitrate) was monitored weekly. Partial water replacements were performed if the desired levels were exceeded. (<3 mg O2/l, detectable nitrite, >25 mg/l nitrate). […] Basal diet composition for Tilapia and Kuruma shrimp contained a calculated arginine content of about 1.35% (of diet) which is lower than the minimum requirements of both Tilapia and Kuruma shrimp: corn 40%, soybean meal 21%, rice polishings 14%, gluten 11%, wheat bran 5%, herring meal 5%, monocalcium phosphate 0.8%, limestone 0.7%, L-lysine HCl 0.7%, fish oil 0.5%, vitamin mineral premix 0.3%, sodium bicarbonate 0.15%, salt 0.15%, pellet binder 0.05%. […]"}}}
{"smiles": "N=C(N)NCCC[C@H](NC(=O)C[C@H](N)C(=O)O)C(=O)O", "note": "[Asp-Arg, β-L-aspartyl-L-arginine]", "values": [{"measurement": "average weight versus amino acid feeding and control", "setting": "Marsupenaeus japonicus; 1.25%", "value": "higher than that of the amino acid feeding and that of the control group"}, {"measurement": "mean", "setting": "Marsupenaeus japonicus; 1.25% supplement in basal diet, average weight", "value": 0.35, "unit": "g"}, {"measurement": "mean (wt in g)", "setting": "Clarias gariepinus; 1.25% (wt/wt) supplement in basal diet", "value": 6.63, "unit": "g"}, {"measurement": "mean (wt in g)", "setting": "Clarias gariepinus; 2.5% (wt/wt) supplement in basal diet", "value": 8.42, "unit": "g"}, {"measurement": "average final weight, % of the control", "setting": "Clarias gariepinus; addition of dipeptides", "value": "around 144 % of the control"}, {"measurement": "safety (mortalities, behavior, postmortem inspection, tissue and blood analysis)", "setting": "[1]; Atlantic salmon, 0.2-0.6% in diet, 10 weeks", "value": "safe for fish"}, {"measurement": "weight gain at the highest level of supplementation", "setting": "[1]; Atlantic salmon, 0.6% supplementation, 10 weeks (FIG. 1)", "value": "not seen"}, {"measurement": "whole body protein level", "setting": "[1]; Atlantic salmon, 10 weeks, compared to the free amino acid groups", "value": "higher body protein level"}, {"measurement": "bioavailability of the dipeptide form versus the free form", "setting": "[1]; in vivo", "value": "five-fold better"}, {"measurement": "mean (wt in g)", "setting": "Oncorhynchus mykiss; 1.25% supplement in basal diet", "value": 13.63, "unit": "g"}, {"measurement": "mean (wt in g)", "setting": "Oncorhynchus mykiss; 2.5% supplement in basal diet", "value": 15.33, "unit": "g"}, {"measurement": "average final weight, % of the control", "setting": "Oncorhynchus mykiss; feed containing 2.5% dipeptides", "value": "around 115 % of the control"}, {"measurement": "mean (wt in g)", "setting": "Oreochromis niloticus; 1.25% supplement in basal diet", "value": 1.84, "unit": "g"}, {"measurement": "mean (wt in g)", "setting": "Oreochromis niloticus; 2.5% supplement in basal diet", "value": 2.03, "unit": "g"}, {"measurement": "final weight, % of the control", "setting": "Oreochromis niloticus; feed supplemented with 2.5% dipeptide", "value": "over 120 % of the control"}]}
